Data taken from patent publication US4175081A, “5-Substituted thiadiazole ureas” (priority 1977, dated 1979).

Experiments:
Crabgrass (CG) [1] = assay: Post-emergence herbicide test; format: in vivo, Digitaria sanquinalis; details: two weeks after treatment; for pest or weed control at 4483.4 g/ha: 4 lb/acre
Protocol: (§1) Crabgrass (CG)--Digitaria sanquinalis
(§2) All crop and weed species were planted individually in 3' plastic pots containing potting soil. Four seeds each of corn, cotton, and snapbeans were seeded to a depth equal to the diameter of the seed. All other species were surface seeded and sprinkled with screened soil in an amount sufficient to cover the seed. Immediately after planting, all pots were watered by sub-irrigation in greenhouse trays. Pots for the pre-emergence phase were seeded one day before treatment.
(§3) Planting dates for the post-emergence phase were varied so that all seedlings would reach the desired stage of development simultaneously. The proper stage of seedling development for treatment in the post-emergence phase is as follows:
(§4) Spray hood constants required to deliver the above volume are as follows:
(§5) Formulations for spray applications were prepared in 50 ml volumes with the following three components: […]
(§6) Spray applications were made in a hood containing a removable belt and fixed spray nozzle. For passage through the spray hood, one pot of each specie (pre-emergence phase) was placed on the rear half of the flat. Treatments were removed to the greenhouse after spraying. Watering during the observation period was done only by sub-irrigation.
(§7) Two weeks after treatment, pre- and post-emergence injury or control was visually rated, and the results were as shown in the following tables. Pre-emergence data are provided in TABLE III and post-emergence data are provided in TABLE IV, for compounds having the formula illustrated in TABLE I. Correspondingly, pre-emergence and post-emergence data, respectively, are set forth in TABLES V AND VI, for compounds having the formula illustrated in TABLE II.

Johnson grass (JG) [2] = assay: Post-emergence herbicide test; format: in vivo, Sorgum helepense; details: Sorghum halepense, 336 h, 4 lb/acre, two weeks after treatment
Protocol: (§8) Johnson grass (JG)--Sorgum helepense
as §2, §3
(§9) Compounds were tested at rates of application equivalent to 8 lbs. of actual compound per acre in a spray volume of 38 gallons per acre. Spray hood constants required to deliver the above volume are as follows:
(§10) Formulations for spray applications were prepared in 50 ml volumes with the following three components:
(§11) Formulations for the 4 lbs/acre rate were prepared by adjusting the amount of active ingredient accordingly.
as §6, §7

Barnyard grass (BG) [3] = assay: Post-emergence herbicide test; format: in vivo; details: Echinochloa crus-galli, 336 h, 4 lb/acre, two weeks after treatment
Protocol: (§12) Barnyard grass (BG)--Echinochloa crus-galli
as §2, §3, §9, §10, §11, §6, §7

Turnip (TP) [4] = assay: Post-emergence herbicide test; format: in vivo, Brassica sp.; details: two weeks after treatment; for pest or weed control at 4483.4 g/ha: 4 lb/acre
Protocol: (§13) Turnip (TP)--Brassica sp.
as §2, §3
Pigweed and turnips: 1 or 2 true leaves above visible cotyledons.
as §4, §5, §6, §7

Cotton (CT) = assay: Post-emergence herbicide test; format: in vivo, Gossypium hirsutum var. DPL smooth leaf; details: two weeks after treatment; for pest or weed control at 4483.4 g/ha: 4 lb/acre
Protocol: Cotton (CT)--Gossypium hirsutum var. DPL smooth leaf
as §2, §3
Cotton: first true leaf 1' in length; expanded cotyledons.
as §4, §10, §11, §6, §7

Corn (CN) = assay: Post-emergence herbicide test; format: in vivo; details: Zea mays, 336 h, 4 lb/acre, two weeks after treatment
Protocol: as §2, §3, §9, §10, §11, §6, §7

Bean (BN) = assay: Post-emergence herbicide test; format: in vivo, Phaseolus vulgaris var. Black Valentine; details: two weeks after treatment; for pest or weed control at 4483.4 g/ha: 4 lb/acre
Protocol: Bean (BN)--Phaseolus vulgaris var. Black Valentine
as §2, §3
Beans: primary leaves expanded, growing point at primary leaf nodes.
as §4, §10, §11, §6, §7

Crabgrass (CG) [5] = assay: Pre-emergence herbicide test; format: in vivo, Digitaria sanquinalis; details: two weeks after treatment; for pest or weed control at 4483.4 g/ha: 4 lb/acre
Protocol: as §1, §2, §4, §5, §6, §7

Turnip (TP) [6] = assay: Pre-emergence herbicide test; format: in vivo, Brassica sp.; details: two weeks after treatment; for pest or weed control at 4483.4 g/ha: 4 lb/acre
Protocol: as §13, §2, §4, §5, §6, §7

Johnson grass (JG) [7] = assay: Pre-emergence herbicide test; format: in vivo, Sorgum helepense; details: Sorghum halepense, 336 h, two weeks after treatment
Protocol: as §8, §2, §9, §10, §11, §6, §7

Barnyard grass (BG) [8] = assay: Pre-emergence herbicide test; format: in vivo; details: Echinochloa crus-galli, 336 h, 4 lb/acre, two weeks after treatment
Protocol: as §12, §2, §9, §10, §11, §6, §7

[9] = Digitaria sanguinalis, post-emergence, 336 h
[10] = Brassica rapa, post-emergence, 336 h
[11] = Gossypium hirsutum, post-emergence, 336 h
[12] = Phaseolus vulgaris, post-emergence, 336 h
[13] = Digitaria sanguinalis, pre-emergence, 336 h
[14] = Brassica rapa, pre-emergence, 336 h

For `CCCCCCSc1nnc(NC(=O)NC)s1` [Example 60], the pest or weed control at 4483.4 g/ha (Crabgrass (CG) [1]; [9]) was 80%, the pest or weed control at 4483.4 g/ha (Johnson grass (JG) [2]) was 70% and the pest or weed control at 4483.4 g/ha (Barnyard grass (BG) [3]) was 40%. It also gave a pest or weed control at 2241.7 g/ha (Turnip (TP) [4]; Brassica rapa, post-emergence, 336 h, 2 lb/acre) of 100%, a pest or weed control at 4483.4 g/ha (Turnip (TP) [4]; [10]) of 100% and a pest or weed control at 4483.4 g/ha (Cotton (CT); [11]) of 70%. It also gave a pest or weed control at 4483.4 g/ha (Corn (CN)) of 60% and a pest or weed control at 4483.4 g/ha (Bean (BN); [12]) of 100%.
Compound `CCCCCS(=O)(=O)c1nnc(NC(=O)NC)s1` [Example 64] has a pest or weed control at 4483.4 g/ha (Crabgrass (CG) [1]; [9]) of 90%, a pest or weed control at 4483.4 g/ha (Johnson grass (JG) [2]) of 50% and a pest or weed control at 4483.4 g/ha (Barnyard grass (BG) [3]) of 60%. The pest or weed control at 4483.4 g/ha (Turnip (TP) [4]; [10]) was 90%, the pest or weed control at 4483.4 g/ha (Cotton (CT); [11]) was 70% and the pest or weed control at 4483.4 g/ha (Corn (CN)) was 30%. For the same compound, the pest or weed control at 4483.4 g/ha (Bean (BN); [12]) was 90%.
`CCCCS(=O)(=O)c1nnc(NC(=O)NC)s1` [Example 65] was tested, and the pest or weed control at 4483.4 g/ha (Crabgrass (CG) [1]; [9]) was 90%, the pest or weed control at 4483.4 g/ha (Johnson grass (JG) [2]) was 60% and the pest or weed control at 4483.4 g/ha (Barnyard grass (BG) [3]) was 90%. The pest or weed control at 4483.4 g/ha (Turnip (TP) [4]; [10]) was 100%, the pest or weed control at 4483.4 g/ha (Cotton (CT); [11]) was 70% and the pest or weed control at 4483.4 g/ha (Corn (CN)) was 30%. For the same compound, the pest or weed control at 4483.4 g/ha (Bean (BN); [12]) was 100%.
In the case of `NC(=O)Nc1nnc(C(F)(F)F)s1` [Example 70], the “Pre-emergence activity, % control, CG” value (Crabgrass (CG) [5]; 5 lb/acre) is reported as 10%, the “Pre-emergence activity, % control, CG” value (Crabgrass (CG) [5]; 10 lb/acre) is reported as 10% and the “Pre-emergence activity, % control, TP” value (Turnip (TP) [6]; 5 lb/acre) is reported as 10%. The “Pre-emergence activity, % control, TP” value (Turnip (TP) [6]; 10 lb/acre) was 10%, the “Post-emergence activity, % control, CG” value (Crabgrass (CG) [1]; 5 lb/acre) was 20% and the “Post-emergence activity, % control, CG” value (Crabgrass (CG) [1]; 10 lb/acre) was 20%. For the same compound, the “Post-emergence activity, % control, TP” value (Turnip (TP) [4]; 5 lb/acre) was 80%, the “Post-emergence activity, % control, TP” value (Turnip (TP) [4]; 10 lb/acre) was 80% and the “Post-emergence activity, % control, CT” value (Cotton (CT); 5 lb/acre) was 20%. For the same compound, the “Post-emergence activity, % control, CT” value (Cotton (CT); 10 lb/acre) was 20%, the “Post-emergence activity, % control, BN” value (Bean (BN); 5 lb/acre) was 50% and the “Post-emergence activity, % control, BN” value (Bean (BN); 10 lb/acre) was 50%.
Work on `CNC(=O)Nc1nnc(C(C)C)s1` [Example 82] yielded a pest or weed control at 4483.4 g/ha (Crabgrass (CG) [5]; [13]) of 30%, a pest or weed control at 4483.4 g/ha (Johnson grass (JG) [7]; 4 lb/acre) of 0% and a pest or weed control at 4483.4 g/ha (Turnip (TP) [6]; [14]) of 20%. The pest or weed control at 4483.4 g/ha (Crabgrass (CG) [1]; [9]) was 50%, the pest or weed control at 4483.4 g/ha (Turnip (TP) [4]; [10]) was 80% and the pest or weed control at 4483.4 g/ha (Cotton (CT); [11]) was 80%. For the same compound, the pest or weed control at 4483.4 g/ha (Bean (BN); [12]) was 60%.
`Cc1nnc(NC(N)=O)s1` [Example 84, reference compound] showed a pest or weed control at 11208.5 g/ha (Crabgrass (CG) [5]; Digitaria sanguinalis, pre-emergence, 336 h, 10 lb/acre) of 0%, a pest or weed control at 11208.5 g/ha (Johnson grass (JG) [7]; 10 lb/acre) of 50% and a pest or weed control at 11208.5 g/ha (Turnip (TP) [6]; Brassica rapa, pre-emergence, 336 h, 10 lb/acre) of 0%. For the same compound, the pest or weed control at 11208.5 g/ha (Crabgrass (CG) [1]; Digitaria sanguinalis, post-emergence, 336 h, 10 lb/acre) was 20%, the pest or weed control at 11208.5 g/ha (Turnip (TP) [4]; Brassica rapa, post-emergence, 336 h, 10 lb/acre) was 80% and the pest or weed control at 11208.5 g/ha (Cotton (CT); Gossypium hirsutum, post-emergence, 336 h, 10 lb/acre) was 20%. For the same compound, the pest or weed control at 11208.5 g/ha (Bean (BN); Phaseolus vulgaris, post-emergence, 336 h, 10 lb/acre) was 50%.
`CNC(=O)Nc1nnc(C2CC2)s1` [Example 85] was tested, and the pest or weed control at 4483.4 g/ha (Crabgrass (CG) [5]; [13]) was 0%, the pest or weed control at 4483.4 g/ha (Barnyard grass (BG) [8]) was 0% and the pest or weed control at 4483.4 g/ha (Turnip (TP) [6]; [14]) was 0%. The pest or weed control at 4483.4 g/ha (Crabgrass (CG) [1]; [9]) was 30%, the pest or weed control at 4483.4 g/ha (Turnip (TP) [4]; [10]) was 60% and the pest or weed control at 4483.4 g/ha (Cotton (CT); [11]) was 80%. The pest or weed control at 4483.4 g/ha (Bean (BN); [12]) was 50%.
